How the values were obtained:
Format in all cases: cell-based, human
[1] = system: ACHN cells expressing constitutively stable HIF-2α-P405A, P853A; assay: Cell cycle analysis of HIF-α mutant cell lines, ACHN HIF-2α; settings: 48 hours post treatment
Method: (§1) Transduction of empty retroviral vector (pBabe) served as a negative control.
(§2) Flow Cytometry: Cells were plated at a density such that they were no more than 70% confluent on the day of analysis. […] For propidium iodide staining, cells were trypsinized, collected by centrifugation and washed in PBS prior to fixing in 70% v/v ethanol. Ethanol was removed by washing in PBS. Cells were incubated with 100 μg/ml RNase A (Sigma) for 5 minutes and stained with 50 μg/ml PI for 30 minutes. […] Cells were stained with fluorescein isothiocyanate (FITC)-conjugated anti-BrdU antibodies (BD Biosciences) according to the manufacturer's instructions. Following multiple washes in blocking solution and PBS, cells were stained with 5 μg/ml PI for 30 minutes. The PI or BrdU/PI-stained samples were analyzed by an LSR® FACS (Becton Dickinson) and the cell cycle profile was analyzed with the FlowJo® software (Tree Star Inc.). Phosphoprotein flow cytometry analysis was performed as previously described in Shah N P et al, Cell 14, 485 (2008), incorporated by reference herein.

ACHN VHL WT = assay: Cell cycle analysis of HIF-α mutant cell lines, ACHN, VHL WT; settings: 48 hours post treatment
Method: as §1, §2

[2] = system: SN12C cells expressing constitutively stable HIF-2α-P405A, P853A; assay: Cell cycle analysis of HIF-α mutant cell lines, SN12C HIF-2α; settings: 48 hours post treatment
Method: as §1, §2

SN12C VHL WT cells = assay: Cell cycle analysis by flow cytometry (PI staining), SN12C VHL WT
Method: as §1, §2

SN12C VHL WT = assay: Cell cycle analysis of HIF-α mutant cell lines, SN12C, VHL WT; settings: 48 hours post treatment
Method: as §1, §2

ACHN VHL WT cells = assay: Cell cycle analysis by flow cytometry (PI staining), ACHN VHL WT
Method: as §1, §2

ACHN shVHL cells = assay: Cell cycle analysis by flow cytometry (PI staining), ACHN shVHL
Method: as §1, §2

SN12C shVHL cells = assay: Cell cycle analysis by flow cytometry (PI staining), SN12C shVHL
Method: as §1, §2

SN12C-shVHL cells = assay: Cell proliferation assay (cell count), SN12C-shVHL
Source text: (§3) Cells were split to sustain log phase growth.

VHL-WT SN12C cells = assay: Cell proliferation assay (cell count), SN12C
Source text: as §3

For Cc1nc(Nc2ncc(C(=O)Nc3c(C)cccc3Cl)s2)cc(N2CCN(CCO)CC2)n1 [dasatinib], the “Cell population (%) in G1” value ([1]; dasatinib 25 nM) was 53.9%, the “Cell population (%) in G2/M” value ([1]; dasatinib 25 nM) was 16.1% and the “Cell population (%) in S” value ([1]; dasatinib 25 nM) was 27.7%. The “Cell population (%) in G1” value ([1]; dasatinib 50 nM) was 51.9%, the “Cell population (%) in G2/M” value ([1]; dasatinib 50 nM) was 19.3% and the “Cell population (%) in S” value ([1]; dasatinib 50 nM) was 27.0%. For the same compound, the “Cell population (%) in G1” value ([1]; dasatinib 100 nM) was 55.3%, the “Cell population (%) in G2/M” value ([1]; dasatinib 100 nM) was 17.7% and the “Cell population (%) in S” value ([1]; dasatinib 100 nM) was 24.2%. The “Cell population (%) in G1” value (ACHN VHL WT; dasatinib 25 nM) was 59.2%, the “Cell population (%) in G2/M” value (ACHN VHL WT; dasatinib 25 nM) was 17.1% and the “Cell population (%) in S” value (ACHN VHL WT; dasatinib 25 nM) was 21.6%. The “Cell population (%) in G1” value (ACHN VHL WT; dasatinib 50 nM) was 56.4%, the “Cell population (%) in G2/M” value (ACHN VHL WT; dasatinib 50 nM) was 16.0% and the “Cell population (%) in S” value (ACHN VHL WT; dasatinib 50 nM) was 25.1%. The “Cell population (%) in G1” value (ACHN VHL WT; dasatinib 100 nM) was 60.1%, the “Cell population (%) in G2/M” value (ACHN VHL WT; dasatinib 100 nM) was 22.0% and the “Cell population (%) in S” value (ACHN VHL WT; dasatinib 100 nM) was 17.6%. For the same compound, the “Cell population (%) in G1” value ([2]; dasatinib 25 nM) was 54.8%, the “Cell population (%) in G2/M” value ([2]; dasatinib 25 nM) was 20.6% and the “Cell population (%) in S” value ([2]; dasatinib 25 nM) was 23.6%. For the same compound, the “Cell population (%) in G1” value ([2]; dasatinib 50 nM) was 55.7%, the “Cell population (%) in G2/M” value ([2]; dasatinib 50 nM) was 22.1% and the “Cell population (%) in S” value ([2]; dasatinib 50 nM) was 21.4%. The “Cell population (%) in G1” value ([2]; dasatinib 100 nM) was 49.7%, the “Cell population (%) in G2/M” value ([2]; dasatinib 100 nM) was 21.3% and the “Cell population (%) in S” value ([2]; dasatinib 100 nM) was 27.8%. The “Cell population (%) in G1” value (SN12C VHL WT cells; dasatinib 25 nM) was 59.5%, the “Cell population (%) in G2/M” value (SN12C VHL WT cells; dasatinib 25 nM) was 15.0% and the “Cell population (%) in S” value (SN12C VHL WT cells; dasatinib 25 nM) was 23.9%. For the same compound, the “Cell population (%) in G1” value (SN12C VHL WT cells; dasatinib 50 nM) was 63.6%, the “Cell population (%) in G2/M” value (SN12C VHL WT cells; dasatinib 50 nM) was 11.7% and the “Cell population (%) in S” value (SN12C VHL WT cells; dasatinib 50 nM) was 22.8%. The “Cell population (%) in G1” value (SN12C VHL WT cells; dasatinib 100 nM) was 70.0%, the “Cell population (%) in G2/M” value (SN12C VHL WT cells; dasatinib 100 nM) was 11.7% and the “Cell population (%) in S” value (SN12C VHL WT cells; dasatinib 100 nM) was 16.3%. For the same compound, the “Cell population (%) in G1” value (SN12C VHL WT; dasatinib 25 nM) was 60.1%, the “Cell population (%) in G2/M” value (SN12C VHL WT; dasatinib 25 nM) was 13.3% and the “Cell population (%) in S” value (SN12C VHL WT; dasatinib 25 nM) was 25.1%. The “Cell population (%) in G1” value (SN12C VHL WT; dasatinib 50 nM) was 59.2%, the “Cell population (%) in G2/M” value (SN12C VHL WT; dasatinib 50 nM) was 11.4% and the “Cell population (%) in S” value (SN12C VHL WT; dasatinib 50 nM) was 27.6%. The “Cell population (%) in G1” value (SN12C VHL WT; dasatinib 100 nM) was 60.4%, the “Cell population (%) in G2/M” value (SN12C VHL WT; dasatinib 100 nM) was 11.1% and the “Cell population (%) in S” value (SN12C VHL WT; dasatinib 100 nM) was 26.5%. For the same compound, the “Cell population (%) in G1” value (ACHN VHL WT cells; dasatinib 25 nM) was 59.7%, the “Cell population (%) in G2/M” value (ACHN VHL WT cells; dasatinib 25 nM) was 12.6% and the “Cell population (%) in S” value (ACHN VHL WT cells; dasatinib 25 nM) was 25.8%. For the same compound, the “Cell population (%) in G1” value (ACHN VHL WT cells; dasatinib 50 nM) was 62.1%, the “Cell population (%) in G2/M” value (ACHN VHL WT cells; dasatinib 50 nM) was 16.0% and the “Cell population (%) in S” value (ACHN VHL WT cells; dasatinib 50 nM) was 17.6%. The “Cell population (%) in G1” value (ACHN VHL WT cells; dasatinib 100 nM) was 64.5%, the “Cell population (%) in G2/M” value (ACHN VHL WT cells; dasatinib 100 nM) was 14.9% and the “Cell population (%) in S” value (ACHN VHL WT cells; dasatinib 100 nM) was 15.7%. For the same compound, the “Cell population (%) in G1” value (ACHN shVHL cells; dasatinib 25 nM) was 50.2%, the “Cell population (%) in G2/M” value (ACHN shVHL cells; dasatinib 25 nM) was 9.8% and the “Cell population (%) in S” value (ACHN shVHL cells; dasatinib 25 nM) was 37.4%. The “Cell population (%) in G1” value (ACHN shVHL cells; dasatinib 50 nM) was 47.6%, the “Cell population (%) in G2/M” value (ACHN shVHL cells; dasatinib 50 nM) was 14.2% and the “Cell population (%) in S” value (ACHN shVHL cells; dasatinib 50 nM) was 36.7%. The “Cell population (%) in G1” value (ACHN shVHL cells; dasatinib 100 nM) was 46.1%, the “Cell population (%) in G2/M” value (ACHN shVHL cells; dasatinib 100 nM) was 10.9% and the “Cell population (%) in S” value (ACHN shVHL cells; dasatinib 100 nM) was 40.8%. For the same compound, the “Cell population (%) in G1” value (SN12C shVHL cells; dasatinib 25 nM) was 45.2%, the “Cell population (%) in G2/M” value (SN12C shVHL cells; dasatinib 25 nM) was 17.5% and the “Cell population (%) in S” value (SN12C shVHL cells; dasatinib 25 nM) was 36.9%. For the same compound, the “Cell population (%) in G1” value (SN12C shVHL cells; dasatinib 50 nM) was 45.4%, the “Cell population (%) in G2/M” value (SN12C shVHL cells; dasatinib 50 nM) was 15.7% and the “Cell population (%) in S” value (SN12C shVHL cells; dasatinib 50 nM) was 38.5%. For the same compound, the “Cell population (%) in G1” value (SN12C shVHL cells; dasatinib 100 nM) was 46.1%, the “Cell population (%) in G2/M” value (SN12C shVHL cells; dasatinib 100 nM) was 18.5% and the “Cell population (%) in S” value (SN12C shVHL cells; dasatinib 100 nM) was 35.3%.

For Cc1ccc(NC(=O)c2ccc(CN3CCN(C)CC3)cc2)cc1Nc1nccc(-c2cccnc2)n1 [imatinib], the effect on proliferation (SN12C-shVHL cells) was “had no effect on the proliferation” and the effect on proliferation (VHL-WT SN12C cells) was “had no effect on the proliferation”.

— US9279811B2, “Methods and kits that identify tumors responsive to Src inhibitors” (OREGON HEALTH & SCIENCE UNIVERSITY, priority 2011, dated 2016)
